{
  "source": "patent US20080279776A1",
  "about": "“Photosensitizers and MRI Enhancers” (Photo Diagnostic Devices (PDD) Limited, priority 2005, published 2008)",
  "origin": "cited, not measured here",
  "details": "readings taken as a prototype",
  "data": [
    {"substance": "18-carboxy-20-(carboxymethyl)-8-ethenyl-13-ethyl-2,3-dihydro-3,7,12,17-tetramethyl-21H,23H-porphine-2-propanoic acid [Chlorine-e6]", "values": [
      {"measurement": "LD10", "result": 119, "unit": "mg/kg weight"},
      {"measurement": "LD50", "result": 160, "unit": "mg/kg weight"}
    ]}
  ]
}
